Literature values in patent publication US9163009B2, “Salts of raltegravir” (priority 2011, dated 2015).

Experiments:
[1] = in vivo
[2] = water

Row | SMILES | bioavailability over raltegravir [1] | aqueous solubility [2]
1 | Cc1nnc(C(=O)NC(C)(C)c2nc(C(=O)NCc3ccc(F)cc3)c([O-])c(=O)n2C)o1.[K+] [Form 1] | superior bioavailability | –
2 | Cc1nnc(C(=O)NC(C)(C)c2nc(C(=O)NCc3ccc(F)cc3)c(O)c(=O)n2C)o1 [Raltegravir, N-(4-fluorobenzyl)-5-hydroxy-1-methyl-2-(1-methyl-1-{[(5-methyl-1,3,4-oxadiazol-2-yl)carbonyl]amino}ethyl)-6-oxo-1,6-dihydropyrimidine-4-carboxamide] | – | poor
3 | Cc1nnc(C(=O)NC(C)(C)c2nc(C(=O)NCc3ccc(F)cc3)c([O-])c(=O)n2C)o1.[K+] [potassium salt of raltegravir] | – | significantly more soluble
